Experimental findings from DBAASP are described below.

Test systems include Escherichia coli 44102; Edwardsiella tarda TX1; Micrococcus luteus; Staphylococcus aureus; Vibrio anguillarum C312.
Common to all, as to assay: ≥ marks a high value that may be exact or a test limit, other limits are often not marked, values filed in µg/mL are converted to µM
Assay [1] concerns Erwinia amylovora PMV 6076.
The test system of assay [2] is Pseudomonas syringae pv. syringae EPS 94.
The test system of assay [3] is Xanthomonas campestris pv. Vesicatoria 2133-2.
Assay [4] deals with Acinetobacter baumannii ATCC 19606.
Assay [5] concerns Acinetobacter baumannii ATCC BAA-1605.
Assay [6] deals with Enterococcus faecalis ATCC 29212.
The test system of assay [7] is Enterococcus faecium ATCC 700221.
Assay [8] concerns Klebsiella aerogenes ATCC 13048.
For assay [9], the system named is Klebsiella pneumoniae ATCC 13883.
Assay [10] has as its system Klebsiella pneumoniae ATCC 700603.
Assay [11] has as its system Pseudomonas aeruginosa ATCC 9027.
Assay [12] has as its system Staphylococcus aureus ATCC 12598.
For assay [13], the system named is Staphylococcus aureus ATCC 33591.
Assay [14] deals with Staphylococcus aureus ATCC 6538.
Assay [15] relates to Staphylococcus aureus ATCC 9144.
For assay [16], the system named is Staphylococcus epidermidis ATCC 12228.
Assay [17] deals with Bacillus anthracis UM23-CL2.
In assay [18] the test system is Burkholderia cepacia J2540.
The test system of assay [19] is Staphylococcus aureus 22401.
The test system of assay [20] is Escherichia coli ATCC 25922.
For assay [21], the system named is Pseudomonas aeruginosa ATCC 10419.
Assay [22] deals with Pseudomonas aeruginosa ATCC 21625.
Assay [23] deals with Pseudomonas aeruginosa ATCC 21630.
For assay [24], the system named is Pseudomonas aeruginosa ATCC 27853.
Assay [25] concerns Pseudomonas aeruginosa LCCE.
The subject of assay [26] is Pseudomonas aeruginosa LCCI.
The test system of assay [27] is Pseudomonas aeruginosa LCGE.
The subject of assay [28] is Pseudomonas aeruginosa LC.
Assay [29] relates to Salmonella enterica subsp. enterica serovar Typhimurium C77-31.
Assay [30] has as its system Staphylococcus aureus ATCC 29213.
In assay [31] the test system is Pseudomonas aeruginosa PAO1.
The test system of assay [32] is Staphylococcus aureus ATCC 43300.
Assay [33] has as its system Staphylococcus aureus LAC.

≈ marks a conversion by molar mass, not a printed value. Where “and” joins values, the source holds several entries; their conditions need not be identical. Equal entries are not always repeated.

For the molecule `CC[C@H](C)[C@H](NC(=O)[C@H](CCCCN)NC(=O)[C@H](CCCCN)NC(=O)[C@H](Cc1ccccc1)NC(=O)[C@H](CC(C)C)NC(=O)[C@H](CCCCN)NC(=O)[C@@H](N)CCCCN)C(=O)N[C@@H](CC(C)C)C(=O)N[C@@H](CCCCN)C(=O)N[C@@H](Cc1ccc(O)cc1)C(=O)N[C@@H](CC(C)C)C(=O)N[C@@H](C)C(=O)NCC(=O)N1CCC[C@H]1C(=O)N[C@@H](C)C(=O)O` [KKLFKKILKYLAGPA], the minimal inhibitory concentration (MIC) in assay [1] worked out at 14.1 µM (≈ 24.3 µg/mL); in [2], 14.1 µM (≈ 24.3 µg/mL); in assay [3] it was 3.54 µM (≈ 6.07 µg/mL).
In the case of `CC[C@H](C)[C@H](NC(=O)[C@H](CCCN=C(N)N)NC(=O)[C@H](CCC(N)=O)NC(=O)[C@@H](NC(=O)[C@@H](NC(=O)[C@H](CCCN=C(N)N)NC(=O)[C@H](CCCCN)NC(C)=O)[C@@H](C)CC)C(C)C)C(=O)N[C@@H](CCCCN)C(=O)N[C@@H](CC(=O)O)C(=O)N[C@@H](Cc1ccccc1)C(=O)N[C@@H](CC(C)C)C(=O)N[C@@H](CCCN=C(N)N)C(N)=O` [KRIVQRIKDFLR], the MIC in assay [4] was no less than 163 µM; in assay [5] it was no less than 163 µM; in assay [6] it was no less than 81.4 µM; in assay [7], 10.2 µM (≈ 16.4 µg/mL); in assay [8], no less than 163 µM; in assay [9], no less than 163 µM. Also, the minimum inhibitory concentration (MIC) in [10] is 163 µM (≈ 263 µg/mL); in [11], 40.7 µM (≈ 65.7 µg/mL); in assay [12] it was no less than 163 µM; in [13] it was no less than 163 µM; in [14] it was 163 µM (≈ 263 µg/mL); in assay [15], no less than 163 µM. This molecule also yielded an MIC in [16] of no less than 163 µM.
As for `CC[C@H](C)[C@H](NC(=O)[C@H](CCCCN)NC(=O)[C@H](CCCCN)NC(=O)[C@H](Cc1ccccc1)NC(=O)[C@H](CC(C)C)NC(=O)[C@H](CCCCN)NC(=O)[C@H](Cc1c[nH]c2ccccc12)NC(=O)[C@@H](N)CCCCN)C(=O)N[C@@H](C)C(=O)N[C@@H](CCCCN)C(=O)N[C@@H](CCCCN)C(=O)N[C@@H](Cc1ccccc1)C(=O)N[C@@H](C)C(=O)N[C@@H](CCCCN)C(=O)N[C@@H](C)C(=O)N[C@@H](Cc1ccccc1)C(=O)N[C@H](C(=O)N[C@@H](C)C(=O)N[C@@H](CCC(=O)O)C(=O)N[C@H](C(=O)N[C@@H](CCSC)C(=O)O)[C@@H](C)CC)C(C)C` [KWKLFKKIAKKFAKAFVAEIM], the minimum inhibitory concentration (MIC) in assay [17] is 24.7 µM and ≥ 49.5 µM; in [18], 12.4 µM (≈ 31.3 µg/mL).
Regarding `CC[C@H](C)[C@H](NC(=O)[C@H](CCC(=O)O)NC(=O)[C@H](C)NC(=O)[C@H](Cc1ccccc1)NC(=O)[C@@H](N)CC(N)=O)C(=O)N[C@@H](Cc1ccccc1)C(=O)N[C@@H](C)C(=O)N[C@@H](C)C(=O)N[C@H](C(=O)N[C@@H](CC(N)=O)C(=O)N[C@@H](CCCCN)C(=O)N[C@@H](CC(C)C)C(=O)N[C@H](C(=O)N[C@@H](CCCCN)C(=O)N[C@@H](CCC(N)=O)C(=O)NCC(=O)N[C@H](C(=O)N[C@H](C(=O)N[C@@H](CCCCN)C(=O)NCC(=O)O)C(C)C)C(C)C)[C@@H](C)CC)C(C)C` [NFAEIFAAVNKLIKQGVVKG], the MIC in the assay on Escherichia coli 44102 is 25 µM (≈ 53.7 µg/mL); in assay [19], no less than 50 µM.
Consider `CC[C@H](C)[C@H](NC(=O)[C@H](Cc1cnc[nH]1)NC(=O)[C@H](CO)NC(=O)[C@@H](N)CCC(N)=O)C(=O)N[C@@H](CO)C(=O)N[C@@H](CC(C)C)C(=O)N[C@H]1CSSC[C@@H](C(=O)N[C@@H](CCCCN)C(=O)N[C@@H](Cc2ccccc2)C(=O)O)NC(=O)[C@@H]2CSSC[C@H](NC(=O)[C@H](Cc3c[nH]c4ccccc34)NC(=O)[C@H](CCCN=C(N)N)NC1=O)C(=O)N[C@H]1CSSC[C@H](NC(=O)CNC(=O)[C@H](CCCCN)NC(=O)[C@H](CC(N)=O)NC(=O)[C@H](C)NC(=O)[C@H](CCCCN)NC(=O)[C@@H]3CSSC[C@H](NC(=O)[C@H](CC(N)=O)NC1=O)C(=O)N3)C(=O)NCC(=O)N[C@@H](Cc1ccccc1)C(=O)N2` [QSHISLCRWCCNCCKANKGCGFCCKF], for which the MIC against Edwardsiella tarda TX1 was found to be 2.83 µM (≈ 8.3 µg/mL); with Micrococcus luteus, 1.41 µM (≈ 4.15 µg/mL); with Staphylococcus aureus, 2.83 µM (≈ 8.3 µg/mL); against Vibrio anguillarum C312, 5.66 µM (≈ 16.6 µg/mL).
Regarding `CC[C@H](C)[C@H](NC(=O)[C@H](CCCCN)NC(=O)[C@H](CCCCN)NC(=O)[C@H](CC(C)C)NC(=O)[C@H](CCCN=C(N)N)NC(=O)[C@H](CCCCN)NC(=O)[C@H](CCCN=C(N)N)NC(=O)[C@@H](NC(=O)[C@H](CCCCN)NC(=O)[C@H](CCCCN)NC(=O)[C@H](CCCN=C(N)N)NC(=O)[C@H](CC(C)C)NC(=O)[C@H](CCCN=C(N)N)NC(=O)[C@H](CCCN=C(N)N)NC(=O)[C@H](Cc1ccccc1)NC(=O)[C@@H](N)CCCN=C(N)N)[C@@H](C)CC)C(N)=O` [RFRRLRKKIRKRLKKI], the MIC in [20] is 128 µM (≈ 281 µg/mL); in assay [21], no less than 256 µM; in assay [22], no less than 256 µM; in assay [23], no less than 256 µM; in [24] it was 256 µM (≈ 562 µg/mL); in assay [25], no less than 256 µM. Further, the MIC in [26] is no less than 256 µM; in assay [27], no less than 256 µM; in assay [28], no less than 64 µM; in assay [29] it was no less than 256 µM; in assay [30], 256 µM (≈ 562 µg/mL); in assay [16], 32 µM (≈ 70.2 µg/mL).
As for `NC(N)=NCCC[C@H](NC(=O)[C@H](CCCN=C(N)N)NC(=O)[C@H](CCCN=C(N)N)NC(=O)[C@@H](N)CCCN=C(N)N)C(=O)N[C@@H](Cc1c[nH]c2ccccc12)C(=O)N[C@@H](Cc1c[nH]c2ccccc12)C(=O)N[C@@H](Cc1c[nH]c2ccccc12)C(=O)N[C@@H](Cc1c[nH]c2ccccc12)C(=O)O` [RRRRWWWW], the minimal inhibitory concentration (MIC) was determined as 46.1 µM (≈ 64 µg/mL) in [20], 15.6 µM (≈ 21.7 µg/mL) in assay [31], 31.3 µM (≈ 43.4 µg/mL) in [32] and 23.1 µM (≈ 32 µg/mL) in assay [33].
